Results on nine cell lines are retold here after the supplement of paper PMC10307832.

What all share (experiment): relative viability (nuclei count vs DMSO), 5 days (fraction); higher = more cells survive
Compound in the assay “TPCA-1 + Pemetrexed”: C1=CC(=CC=C1C2=CC(=C(S2)NC(=O)N)C(=O)N)F [TPCA-1] + Nc1nc2[nH]cc(CCc3ccc(C(=O)N[C@@H](CCC(=O)O)C(=O)O)cc3)c2c(=O)[nH]1 [Pemetrexed] (partner 0.2 µM)
In short, it runs like this: (§1)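 Lung cancer cell lines, seeded in 1536-well plates, were treated the following day by pin tool with a single drug or with five library-drug doses (not always all listed) in √10 steps on top of a fixed anchor-drug dose. Cells were fixed and nuclei stained in one step after 5 days, and nuclei were counted. Relative viability is the nuclei count for treated wells divided by that for vehicle wells, reported as medians of duplicate plates.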

Compound in assay [1]: C1/C(=C\C2=CC=CS2)/C(=O)/C(=C/C3=CC=CS3)/C1 + C[C@]1(O)C[C@@H](c2nc(-c3ccc4ccc(-c5ccccc5)nc4c3)c3c(N)nccn32)C1 [Linsitinib] (partner 1 µM)
An outline of the steps:
as §1

Compound in assay [2]: C1/C(=C\C2=CC=CS2)/C(=O)/C(=C/C3=CC=CS3)/C1 + CC(C)C[C@H](NC(=O)[C@H](Cc1ccccc1)NC(=O)c1cnccn1)B(O)O [Bortezomib] (partner 0.002 µM)
In short, it runs like this:
as §1

Compound in the assay “Lestaurtinib + OSI-027”: C[C@]12O[C@H](C[C@]1(O)CO)n1c3ccccc3c3c4c(c5c6ccccc6n2c5c31)CNC4=O [Lestaurtinib] + COc1cccc2cc(-c3nc([C@H]4CC[C@H](C(=O)O)CC4)n4ncnc(N)c34)[nH]c12 [OSI-027] (partner 0.5 µM)
In short, it runs like this: as §1

For the cell line 201T, the relative viability turned out to be 0.363 with TPCA-1 + Pemetrexed (first compound 0.04 µM); 0.298 in the assay with TPCA-1 + Pemetrexed (first compound 0.1265 µM); 0.337 in the assay with TPCA-1 + Pemetrexed (first compound 0.4 µM); 0.282 with TPCA-1 + Pemetrexed (first compound 1.265 µM); 0.304 with TPCA-1 + Pemetrexed (first compound 4 µM); 1.08 in assay [1] (first compound 0.2 µM). Moreover, the relative viability came to 0.989 in assay [1] (first compound 0.6325 µM); 1.16 in assay [1] (first compound 2 µM); 0.9 in assay [1] (first compound 6.325 µM); 0.996 in assay [1] (first compound 20 µM); 1.17 in assay [2] (first compound 0.2 µM); 1.08 in assay [2] (first compound 0.6325 µM). For the same cell line, the relative viability in assay [2] (first compound 2 µM) was 1.13; in assay [2] (first compound 6.325 µM) it was 1.04; in assay [2] (first compound 20 µM), 1.08; with Lestaurtinib + OSI-027 (first compound 0.005 µM), 0.766; in the assay with Lestaurtinib + OSI-027 (first compound 0.01581 µM) it was 0.982; with Lestaurtinib + OSI-027 (first compound 0.1581 µM) it was 0.63. Besides, the relative viability with Lestaurtinib + OSI-027 (first compound 0.5 µM) was 0.447.
As for A549, the relative viability in assay [1] (first compound 0.2 µM) is 0.636; in assay [1] (first compound 0.6325 µM) it was 0.556; in assay [1] (first compound 2 µM) it was 0.628; in assay [1] (first compound 6.325 µM) it was 0.516; in assay [1] (first compound 20 µM) it was 0.567.
On to A-427, for which the relative viability in the assay with TPCA-1 + Pemetrexed (first compound 0.04 µM) came to 1.01; with TPCA-1 + Pemetrexed (first compound 0.1265 µM), 0.918; with TPCA-1 + Pemetrexed (first compound 0.4 µM) it was 1.11; in the assay with TPCA-1 + Pemetrexed (first compound 1.265 µM) it was 1.05; in the assay with TPCA-1 + Pemetrexed (first compound 4 µM), 0.388; in assay [1] (first compound 0.2 µM), 1.14. For the same cell line, the relative viability in assay [1] (first compound 0.6325 µM) was found to be 1.12; in assay [1] (first compound 2 µM), 1.11; in assay [1] (first compound 6.325 µM), 1.06; in assay [1] (first compound 20 µM), 1.15; in assay [2] (first compound 0.2 µM), 1.07; in assay [2] (first compound 0.6325 µM), 1.08. The relative viability in assay [2] (first compound 2 µM) amounted to 0.961; in assay [2] (first compound 6.325 µM) it was 0.993; in assay [2] (first compound 20 µM) it was 0.981; in the assay with Lestaurtinib + OSI-027 (first compound 0.005 µM) it was 0.473; with Lestaurtinib + OSI-027 (first compound 0.01581 µM), 0.402; with Lestaurtinib + OSI-027 (first compound 0.05 µM), 0.257. Further, the relative viability with Lestaurtinib + OSI-027 (first compound 0.1581 µM) worked out at 0.233; with Lestaurtinib + OSI-027 (first compound 0.5 µM) it was 0.146.
As for ABC-1, the relative viability in assay [1] (first compound 0.2 µM) was 0.931; in assay [1] (first compound 0.6325 µM), 0.879; in assay [1] (first compound 2 µM) it was 0.882; in assay [1] (first compound 6.325 µM), 0.671; in assay [1] (first compound 20 µM) it was 0.802; in assay [2] (first compound 0.2 µM), 0.33. Besides, the relative viability was found to be 0.349 in assay [2] (first compound 0.6325 µM); 0.336 in assay [2] (first compound 2 µM); 0.265 in assay [2] (first compound 6.325 µM); 0.253 in assay [2] (first compound 20 µM); 0.505 with Lestaurtinib + OSI-027 (first compound 0.005 µM); 0.65 with Lestaurtinib + OSI-027 (first compound 0.01581 µM). Also, the relative viability is 0.342 in the assay with Lestaurtinib + OSI-027 (first compound 0.05 µM), 0.456 in the assay with Lestaurtinib + OSI-027 (first compound 0.1581 µM) and 0.175 with Lestaurtinib + OSI-027 (first compound 0.5 µM).
With BEN, the relative viability with TPCA-1 + Pemetrexed (first compound 0.04 µM) was found to be 0.701; in the assay with TPCA-1 + Pemetrexed (first compound 0.1265 µM), 0.661; with TPCA-1 + Pemetrexed (first compound 0.4 µM), 0.739; in the assay with TPCA-1 + Pemetrexed (first compound 1.265 µM), 0.99; with TPCA-1 + Pemetrexed (first compound 4 µM) it was 0.513; in assay [1] (first compound 0.2 µM) it was 0.96. Further, the relative viability in assay [1] (first compound 0.6325 µM) was 0.923; in assay [1] (first compound 2 µM), 0.877; in assay [1] (first compound 6.325 µM) it was 0.841; in assay [1] (first compound 20 µM), 0.757; in assay [2] (first compound 0.2 µM), 0.719; in assay [2] (first compound 0.6325 µM), 1.04. Besides, the relative viability stood at 1.01 in assay [2] (first compound 2 µM); 0.68 in assay [2] (first compound 6.325 µM); 0.719 in assay [2] (first compound 20 µM); 0.463 with Lestaurtinib + OSI-027 (first compound 0.005 µM); 0.313 with Lestaurtinib + OSI-027 (first compound 0.01581 µM); 0.3 with Lestaurtinib + OSI-027 (first compound 0.05 µM). The relative viability stood at 0.298 with Lestaurtinib + OSI-027 (first compound 0.1581 µM) and 0.196 with Lestaurtinib + OSI-027 (first compound 0.5 µM).
On to CAL-12T, for which the relative viability in the assay with TPCA-1 + Pemetrexed (first compound 0.04 µM) stood at 1.12; with TPCA-1 + Pemetrexed (first compound 0.1265 µM) it was 0.968; with TPCA-1 + Pemetrexed (first compound 0.4 µM), 1.17; with TPCA-1 + Pemetrexed (first compound 1.265 µM), 1.09; with TPCA-1 + Pemetrexed (first compound 4 µM), 0.828; in assay [1] (first compound 0.2 µM) it was 0.837. Besides, the relative viability came to 0.964 in assay [1] (first compound 0.6325 µM); 0.764 in assay [1] (first compound 2 µM); 0.744 in assay [1] (first compound 6.325 µM); 0.92 in assay [1] (first compound 20 µM); 1.1 in assay [2] (first compound 0.2 µM); 1.09 in assay [2] (first compound 0.6325 µM). For the same cell line, the relative viability came out at 1.18 in assay [2] (first compound 2 µM); 0.976 in assay [2] (first compound 6.325 µM); 1.04 in assay [2] (first compound 20 µM); 0.699 in the assay with Lestaurtinib + OSI-027 (first compound 0.005 µM); 0.698 in the assay with Lestaurtinib + OSI-027 (first compound 0.01581 µM); 0.515 with Lestaurtinib + OSI-027 (first compound 0.05 µM). For the same cell line, the figures for the relative viability with Lestaurtinib + OSI-027 (first compound 0.1581 µM) and in the assay with Lestaurtinib + OSI-027 (first compound 0.5 µM) were 0.36 and 0.278, respectively.
Turning to COR-L23, the relative viability came to 0.206 in the assay with TPCA-1 + Pemetrexed (first compound 0.04 µM); 0.207 in the assay with TPCA-1 + Pemetrexed (first compound 0.1265 µM); 0.184 with TPCA-1 + Pemetrexed (first compound 0.4 µM); 0.193 with TPCA-1 + Pemetrexed (first compound 1.265 µM); 0.196 in the assay with TPCA-1 + Pemetrexed (first compound 4 µM); 0.981 in assay [1] (first compound 0.2 µM). The relative viability came out at 0.921 in assay [1] (first compound 0.6325 µM); 0.875 in assay [1] (first compound 2 µM); 0.838 in assay [1] (first compound 6.325 µM); 0.887 in assay [1] (first compound 20 µM); 1.12 in assay [2] (first compound 0.2 µM); 0.983 in assay [2] (first compound 0.6325 µM). Besides, the relative viability was 0.978 in assay [2] (first compound 2 µM); 0.946 in assay [2] (first compound 6.325 µM); 1.01 in assay [2] (first compound 20 µM); 0.612 with Lestaurtinib + OSI-027 (first compound 0.005 µM); 0.933 with Lestaurtinib + OSI-027 (first compound 0.01581 µM); 0.281 with Lestaurtinib + OSI-027 (first compound 0.05 µM). For the same cell line, the relative viability is 0.395 with Lestaurtinib + OSI-027 (first compound 0.1581 µM) and 0.343 in the assay with Lestaurtinib + OSI-027 (first compound 0.5 µM).
With COR-L 105, the relative viability in the assay with TPCA-1 + Pemetrexed (first compound 0.04 µM) is 1.02; in the assay with TPCA-1 + Pemetrexed (first compound 0.1265 µM), 0.931; with TPCA-1 + Pemetrexed (first compound 0.4 µM), 1.23; in the assay with TPCA-1 + Pemetrexed (first compound 1.265 µM) it was 1.03; with TPCA-1 + Pemetrexed (first compound 4 µM) it was 0.777; in assay [1] (first compound 0.2 µM) it was 0.976. Besides, the relative viability in assay [1] (first compound 0.6325 µM) came out at 0.905; in assay [1] (first compound 2 µM), 0.939; in assay [1] (first compound 6.325 µM), 0.766; in assay [1] (first compound 20 µM), 0.878; in assay [2] (first compound 0.2 µM), 1.02; in assay [2] (first compound 0.6325 µM), 0.73. The relative viability in assay [2] (first compound 2 µM) is 1.03; in assay [2] (first compound 6.325 µM) it was 0.678; in assay [2] (first compound 20 µM), 0.662; with Lestaurtinib + OSI-027 (first compound 0.005 µM) it was 0.616; with Lestaurtinib + OSI-027 (first compound 0.01581 µM), 0.696; in the assay with Lestaurtinib + OSI-027 (first compound 0.05 µM) it was 0.565. The results for the relative viability in the assay with Lestaurtinib + OSI-027 (first compound 0.1581 µM) and with Lestaurtinib + OSI-027 (first compound 0.5 µM) were 0.441 and 0.23, respectively.
Take Calu-6: the relative viability was 1.05 in assay [1] (first compound 0.2 µM); 1.05 in assay [1] (first compound 0.6325 µM); 0.94 in assay [1] (first compound 2 µM); 0.921 in assay [1] (first compound 6.325 µM); 0.835 in assay [1] (first compound 20 µM); 1.02 in assay [2] (first compound 0.2 µM). Further, the relative viability in assay [2] (first compound 0.6325 µM) amounted to 1.02; in assay [2] (first compound 2 µM), 1; in assay [2] (first compound 6.325 µM), 0.837; in assay [2] (first compound 20 µM), 1.06.
